Measurements as given in US20250302795A1, “SMALL MOLECULE COMPOUNDS WITH NEGATIVE REGULATORY EFFECTS ON Nrf2 SIGNALING [sequence] AND THEIR POTENTIAL APPLICATIONS” (Beijing Hebabiz Biotechnology Co., Inc., priority 2022, published 2025).

Assays:
Type in all cases: in vivo, rat
[1] = tested on: rats with nonalcoholic steatohepatitis induced by a high-fat diet and CCl4; experiment: Four indices of serum hepatic fibrosis, high-fat diet and CCl4 model; details: positive control group
Description: (§1) Starting from the seventh week, they received subcutaneous injections of a 30% CCl4 olive oil solution at a dosage of 0.2 ml/100 g behind their back twice per week for a total of four times. Once the model was successfully replicated, the corresponding drugs were administered orally (10 ml/kg) in each treatment group, and both the normal control group and the model group received equal volumes of a 0.5% CMC-Na solution once daily for ten consecutive weeks. Throughout the experimental period, the rats were provided with ad libitum access to food and water, while the animal chamber was maintained under controlled conditions of quietness, natural lighting, a temperature of 25±0.5° C., and a humidity level of 55±5%. The rats' body weights were measured once per week and recorded.
(§2) At the end of the tenth week of administration, all rats underwent a 16-hour fasting period following their final administration and were intraperitoneally injected with a 20% ulinastatin solution (10 ml/kg) for anesthesia. Subsequently, blood samples were collected from the abdominal aorta and allowed to stand for one hour, and then centrifuged at 4° C. for fifteen minutes at a speed of 3000 r/min. Finally, the upper serum was stored at −80° C. Following the instructions provided with the biochemical index detection kit, levels of HDL-C, LDL-C, NEFA, AST, ALT, UA, TC, TG, PCIII, IV-C LN and HA in rat serum were determined.

[2] = tested on: rats with nonalcoholic steatohepatitis induced by a high-fat diet and CCl4; experiment: Serum biochemical indices, high-fat diet and CCl4 model; details: end of tenth week of administration, positive control group
Description: as §1, §2
According to the kit instructions, the concentration of fasting plasma glucose (FPG) in serum was determined using colorimetry, while the concentration of fasting insulin (FINS) in serum was measured through radioimmunoassay.

[3] = Body weight of rats, high-fat diet non-alcoholic steatohepatitis model; details: positive control group, in g (unit assumed)
Description: (§3) The normal control group was fed a standard diet for twelve weeks while the other groups were fed a high-fat diet consisting of 88% basal diet+10% lard+2% cholesterol for twelve weeks. After establishing the model, the drug groups received their respective treatments at a dosage of 10 ml/kg while the normal and model groups received an equal volume of 0.5% CMC-Na solution. The rats were provided with ad libitum access to water and food, while the animal chamber was maintained under controlled conditions of quietness, natural lighting, a temperature of 25±0.5° C., and a humidity level of 55±5%. The rats' body weights were measured once per week and recorded.
The rats were weighed weekly to monitor the fluctuations in body weight within each experimental group.

[4] = tested on: rats with non-alcoholic steatohepatitis induced by high-fat diet; experiment: Serum biochemical indices, non-alcoholic steatohepatitis model induced by high-fat diet; details: end of 8th week of administration, positive control group
Description: After establishing the model, the drug groups received their respective treatments at a dosage of 10 ml/kg while the normal and model groups received an equal volume of 0.5% CMC-Na solution. The rats were provided with ad libitum access to water and food, while the animal chamber was maintained under controlled conditions of quietness, natural lighting, a temperature of 25±0.5° C., and a humidity level of 55±5%. The rats' body weights were measured once per week and recorded.
At the end of the 8th week of administration, all rats were anesthetized with a 20% ulinastatin solution (10 ml/kg) via an intraperitoneal injection after the final administration. Subsequently, blood was collected from the abdominal aorta post-anesthesia. After standing for 1 hour, the blood was centrifuged at 4° C. and 3000 r/min for 15 minutes to obtain the upper serum fraction which was then stored at −80° C. Following the instructions provided by the biochemical index detection kit, levels of HDL-C, LDL-C, NEFA, AST, ALT, UA, TC, TG, FPG and FINS in rat serum were determined.

[5] = tested on: rats with non-alcoholic steatohepatitis induced by high-fat diet; experiment: Liver indices, non-alcoholic steatohepatitis model induced by high-fat diet
Description: as §3
(3) Liver indices was determined by dividing the wet weight of the liver by the body weight of rats and multiplying by 100%, after liver tissue was isolated, washed with normal saline, dried using filter paper, and weighed following blood sampling from the abdominal aorta. (4) HE staining and oil red staining were performed on liver tissue samples obtained from the abdominal aorta of rats. The tissue was fixed in 10% neutral formalin, followed by embedding, slicing, dewaxing, staining, transparency treatment, and sealing using routine procedures. Microscopic examination was conducted to observe the pathological changes in rat liver tissues across different groups. Additionally, the NASH-CRN scoring system was employed to assess NAS scores. (5) Detection of Proteins Associated with Non-Alcoholic Steatohepatitis

## COC(=O)c1cc(OC)c2c(c1-c1c(CO)cc(OC)c3c1OCO3)OCO2 [Bicyclol]
[1]
  HA: 45.78 ± 22.99 µg/L
  IV-C: 13.22 ± 4.50 µg/L
  LN: 110.64 ± 44.60 µg/L
  PC-III: 8.78 ± 1.87 µg/L
[2]; FPG x FINS/22.5
  HOMA-IR: 5.48
[2]; serum
  ALT: 44.39 U/L
  AST: 66.96 U/L
  HDL-C: 1.29 mmol/L
  LDL-C: 0.90 mmol/L
  NEFA: 0.77 mmol/L
  TC: 1.85 mmol/L
  TG: 0.63 mmol/L
  UA: 126 µmol/L
[3]; week 0 (pre-administration)
  body weight: 195.09 ± 3.95
[3]; week 1 (pre-administration)
  body weight: 254.99 ± 12.09
[3]; week 2 (pre-administration)
  body weight: 307.37 ± 12.92
[3]; week 3 (pre-administration)
  body weight: 343.86 ± 17.21
[3]; week 4 (pre-administration)
  body weight: 379.51 ± 22.29
[3]; week 5 (pre-administration)
  body weight: 413.81 ± 26.94
[3]; week 6 (pre-administration)
  body weight: 444.77 ± 32.35
[3]; week 7 (pre-administration)
  body weight: 461.64 ± 35.88
[3]; week 8 (pre-administration)
  body weight: 493.67 ± 41.04
[3]; week 9 (pre-administration)
  body weight: 510.27 ± 41.17
[3]; week 10 (pre-administration)
  body weight: 526.93 ± 47.38
[3]; week 11 (pre-administration)
  body weight: 541.47 ± 50.20
[3]; week 12 (pre-administration)
  body weight: 550.05 ± 58.70
[3]; week 13
  body weight: 526.35 ± 68.66
[3]; week 14
  body weight: 515.27 ± 58.62
[3]; week 15
  body weight: 519.07 ± 54.38
[3]; week 16
  body weight: 539.33 ± 58.40
[3]; week 17
  body weight: 562.79 ± 61.59
[3]; week 18
  body weight: 588.75 ± 70.94
[3]; week 19
  body weight: 593.71 ± 72.81
[3]; week 20
  body weight: 586.53 ± 112.38
[4]; FPG x FINS/22.5
  HOMA-IR: 1.04
[4]; serum
  ALT: 547.14 U/L
  AST: 19.65 U/L
  HDL-C: 1.34 mmol/L
  LDL-C: 0.91 mmol/L
  NEFA: 0.92 mmol/L
  TC: 2.76 mmol/L
  TG: 0.83 mmol/L
  UA: 81.3 µmol/L
[5]; NR218 at high, medium and low doses, P<0.01 or P<0.05
  liver indices versus model group (in words): significant decrease compared to the model group
[5]; high-fat diet model, positive control group
  Liver Indices: 3.77 ± 1.17 %
